According to the supplement of paper PMC5908809:

Assays:
[1] = test system: normal NK cells expanded with K562-aAPC; assay: percent inhibition of viability; higher = more inhibition; settings: 72 h, IL-2 2.5 ng/mL
Experimental: (§1)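 Drug sensitivity and resistance testing on K562-aAPC-expanded normal NK cells: 5 concentrations (10-fold steps over a 10,000-fold range), 72 h at 37 °C, viability by CellTiter-Glo normalised to DMSO and benzethonium chloride controls; DSS from the fitted curve.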

[2] = test system: normal primary NK cells, pool 1 (3 donors) (IL-2 2.5 ng/mL); assay: drug sensitivity score (DSS) (DSS units); higher = more sensitive; extreme values may be limits of the assay; settings: 72 h
[3] = test system: DERL-7 (IL-2 2.5 ng/mL); assay: as above; settings: 72 h
[4] = test system: SNK-6 (IL-2 2.5 ng/mL); assay: as above; settings: 72 h
[5] = test system: normal primary NK cells, pool 2 (3 donors) (IL-2 2.5 ng/mL); assay: as above; settings: 72 h
[6] = test system: NK-YS (IL-2 2.5 ng/mL); assay: as above; settings: 72 h
[7] = test system: NK-92 (IL-2 2.5 ng/mL); assay: as above; settings: 72 h
[8] = test system: KAI3 (IL-2 2.5 ng/mL); assay: as above; settings: 72 h
[9] = test system: KHYG-1 (IL-2 2.5 ng/mL); assay: as above; settings: 72 h
[10] = test system: IMC-1 (IL-2 20 ng/mL); assay: as above; settings: 72 h
[11] = test system: NKL (IL-2 2.5 ng/mL); assay: as above; settings: 72 h
[12] = test system: YT (IL-2 2.5 ng/mL); assay: as above; settings: 72 h
[13] = test system: normal primary NK cells, pool 1 (3 donors), resting (IL-2 0 ng/mL); assay: as above; settings: 72 h
[14] = test system: normal primary NK cells, pool 3 (3 donors) (IL-2 2.5 ng/mL); assay: as above; settings: 72 h
[15] = test system: normal primary NK cells, pool 1 (3 donors) (IL-2 2.5 ng/mL); assay: percent inhibition of viability; higher = more inhibition; settings: 72 h
[16] = test system: DERL-7 (IL-2 2.5 ng/mL); assay: as above; settings: 72 h
[17] = test system: SNK-6 (IL-2 2.5 ng/mL); assay: as above; settings: 72 h
[18] = test system: normal primary NK cells, pool 2 (3 donors) (IL-2 2.5 ng/mL); assay: as above; settings: 72 h
[19] = test system: NK-YS (IL-2 2.5 ng/mL); assay: as above; settings: 72 h
[20] = test system: NK-92 (IL-2 2.5 ng/mL); assay: as above; settings: 72 h
[21] = test system: KAI3 (IL-2 2.5 ng/mL); assay: as above; settings: 72 h
[22] = test system: KHYG-1 (IL-2 2.5 ng/mL); assay: as above; settings: 72 h
[23] = test system: IMC-1 (IL-2 20 ng/mL); assay: as above; settings: 72 h
[24] = test system: NKL (IL-2 2.5 ng/mL); assay: as above; settings: 72 h
[25] = test system: YT (IL-2 2.5 ng/mL); assay: as above; settings: 72 h
[26] = test system: normal primary NK cells, pool 1 (3 donors), resting (IL-2 0 ng/mL); assay: as above; settings: 72 h
[27] = test system: normal primary NK cells, pool 3 (3 donors) (IL-2 2.5 ng/mL); assay: as above; settings: 72 h
[28] = test system: normal NK cells expanded with K562-aAPC; assay: drug sensitivity score (DSS) (DSS units); higher = more sensitive; extreme values may be limits of the assay; settings: 72 h; IL-2 2.5 ng/mL
Experimental: as §1

C[C@]12CC[C@@H]3c4ccc(O)cc4C[C@@H](CCCCCCCCC[S+]([O-])CCCC(F)(F)C(F)(F)F)[C@H]3[C@@H]1CC[C@@H]2O (stereo partly specified) [Fulvestrant] (max concentration tested 1000 nM)
percent inhibition of viability [%]
Settings	0.1 nM	1 nM	10 nM	100 nM	1000 nM
[1]	-7.38	-10.5	-9.28	-0.53	6.13
[15]	-3.4	-8.82	2.76	-0.05	-2.99
[16]	-6.65	4.87	1.14	-1.33	2.61
[17]	-16.9	6.87	-25.7	-23.9	-13.9
[18]	-0.86	-4.87	4.79	2.49	3.75
[19]	-4.05	-5.76	-3.52	0.56	15.3
[20]	-8.22	-4.79	-0.7	-0.61	35.1
[21]	-10.2	-0.09	8.43	5.9	26.5
[22]	-10.8	-4.41	-2.37	-6.26	7.16
[23]	-8.22	-3.8	-1.67	-1.37	16.7
[24]	-3.73	1.23	1.02	9.49	38.2
[25]	-6.18	3.96	7.53	-1.76	28.7
[26]	7.52	-6.84	15.3	7.9	31.3
[27]	6.08	3.62	2.89	-5.25	-3.36

Settings	drug sensitivity score
[2]	0
[3]	0
[4]	0
[5]	0
[6]	0.29
[7]	1.6
[8]	1.68
[9]	0
[10]	0.29
[11]	3.35
[12]	1.09
[13]	2.33
[14]	0
[28]	0

CN(Cc1cnc2nc(N)nc(N)c2n1)c1ccc(C(=O)N[C@@H](CCC(=O)O)C(=O)O)cc1 [Methotrexate] (max concentration tested 5000 nM)
percent inhibition of viability [%]
Settings	0.5 nM	5 nM	50 nM	500 nM	5000 nM
[1]	-3.65	-3.48	-3.07	34	31.4
[15]	-2.85	-7.99	1.44	-1.93	-0.84
[16]	1.41	1.81	-8.11	43.7	51.8
[17]	2.63	21	76.8	81.2	82.7
[18]	-8.41	-4.79	-9.59	-5.9	-3.72
[19]	7.63	4.28	83.5	93	87.1
[20]	-11.1	6.17	69.3	84	80.7
[21]	2.61	9.06	73.1	86.4	80.6
[22]	1.68	0.21	95.2	104	99.2
[23]	-3.79	5.79	72.9	95.6	97.3
[24]	-5.39	-6.27	40.4	61.1	58.2
[25]	5.17	3.44	63.8	54.4	48.9
[26]	-7.95	-0.85	11.4	8.67	18.2
[27]	-11.3	-6.43	-11.2	-2.82	-3.84

Settings	drug sensitivity score
[2]	0
[3]	7.89
[4]	27.2
[5]	0.89
[6]	27.5
[7]	24.3
[8]	25.6
[9]	29.8
[10]	26.7
[11]	16.1
[12]	20.5
[13]	1.25
[14]	0.89
[28]	5.62

COc1ccc2c(OCc3nnc4ccc(-c5ccccc5)nn34)ccnc2c1 [AMG-208] (max concentration tested 2500 nM)
percent inhibition of viability [%]
Settings	0.25 nM	2.5 nM	25 nM	250 nM	2500 nM
[1]	-4.22	-2.93	1.22	-1.02	9.46
[15]	0.88	0.76	0.54	1.27	4.15
[16]	-3.09	-8.21	-1.7	-5.84	-4.71
[17]	2.2	11.6	22.9	28.1	18.8
[18]	-3.74	-5.68	4.86	9.98	4.41
[19]	-3.94	-3.82	-0.96	1.47	6.08
[20]	0.24	-14.7	-6.65	10.4	13.1
[21]	-0.14	-2.19	-6.54	1.34	11.6
[22]	-2.14	0.21	1.18	6.23	15.6
[23]	-1.21	1.46	1.28	6.67	11.1
[24]	-4.88	-0.72	5.74	1.87	1.01
[25]	1.44	4.97	5.31	10	12.4
[26]	-15.8	-2.94	7.27	3.54	-2.41
[27]	-8.14	-5.89	5.5	0.46	5.72

Settings	drug sensitivity score
[2]	0
[3]	0.89
[4]	7.74
[5]	0
[6]	0
[7]	0.61
[8]	0.07
[9]	0.59
[10]	0.02
[11]	0
[12]	0.16
[13]	0
[14]	0
[28]	0

C[C@@H]1C[C@H]2[C@@H]3CCC4=CC(=O)C=C[C@]4(C)[C@@]3(F)[C@@H](O)C[C@]2(C)[C@@]1(O)C(=O)CO [Dexamethasone] (max concentration tested 10000 nM)
percent inhibition of viability [%]
Settings	1 nM	10 nM	100 nM	1000 nM	10000 nM
[1]	1.98	35.4	61.5	68.6	77.8
[15]	2.6	42	68.9	80.5	86.6
[16]	-2.49	63.1	100	101	101
[17]	-0.75	-7.56	-4.28	-3.37	8.99
[18]	2.03	37.3	63.2	69.1	74.5
[19]	-5.2	-1.29	1.38	4.74	18.8
[20]	-14.3	-20.1	-19.3	-2.77	5.06
[21]	-8.83	-13.5	-3.07	-3.87	31.2
[22]	-1.02	14.1	39.9	50.3	69.1
[23]	-2.17	-4.52	-10.6	-12.7	-2.61
[24]	12.3	38.1	57.3	64.1	67.1
[25]	-0.83	11.3	22.4	36.4	45.4
[26]	8.34	65.5	83.1	84.5	86.9
[27]	-8.83	19.5	43.5	50.7	58

Settings	drug sensitivity score
[2]	28.9
[3]	37.9
[4]	0
[5]	26
[6]	1.07
[7]	0
[8]	1.14
[9]	15.6
[10]	0
[11]	24.6
[12]	9.59
[13]	35.4
[14]	17.3
[28]	25.3
